Consider 89 compounds from a melting point compilation (Tetko et al.; mined from patent text by program, amines drawn as free bases though some values may be those of a salt).

What is called melting point is the temperature of the solid-liquid transition. Compound `CNC(=O)c1ccncc1I` yielded a melting point of 132 to 133 °C. The figure for `Cc1cccc(C(=O)Nc2c[nH]nc2C(=O)NCC(C)(C)C#N)n1` is 250 to 251 °C. The compound `CCOC(=O)C1=C(C)NC(CO)=C(C(=O)OCC)C1c1cccc([N+](=O)[O-])c1` (centres undefined) came in with a melting point of 141 to 142 °C. For `CCOC(=O)c1cnn(Cc2ccc(OCc3nc(-c4ccccc4)oc3C)cc2)c1`, the melting point lay within 108 to 109 °C. In the case of `ClCc1csc(N2CCOCC2)n1` it was 87 to 88 °C; in that of `Cc1ccccc1Sc1cccc(CO)c1O`, 75 to 77 °C. `NC(=O)C1C=Cc2cc(Cl)ccc2N1C(=O)c1ccccc1` (centres undefined): the melting point lay in the range of 230 to 234 °C. Take `CC(=O)OC1Cc2ccc([N+](=O)[O-])cc2C1` (centres undefined): the melting point is 84 to 85 °C. In the case of `CC(=O)OCc1c(Br)cccc1N1CCc2c(cc3n2CCCC3)C1=O`, the melting point was 176 to 178 °C. In turn, `Cc1ncsc1CNc1ccc(-n2nc(C(F)(F)F)cc2C2CC2)cc1` gave a melting point of 59.2 to 61.2 °C. Compound `COC(=O)c1ccccc1S(=O)(=O)NC(=O)Nc1nc(C)cc(CO)n1` registered a melting point of 140 to 141 °C. As for `O=C(OCc1ccc(C(F)(F)F)cc1)N1CCC2(CC1)Cn1cc([N+](=O)[O-])nc1O2`, the melting point lay in the range of 189 to 190 °C. Regarding `CCOC(=O)c1cccc(Oc2ncccc2O)c1`, the melting point was in the range of 117 to 118 °C. In turn, `Cc1oc(-c2ccccc2)nc1COc1ccc(C(=O)O)cc1` returned a melting point of 190 to 191 °C. `CC(C)(C)c1cc(-c2nn(C3CCOC3=O)c3ncccc23)cc(C(C)(C)C)c1O` (centres undefined) registered a melting point of 164 to 167 °C.

As for `Cc1ccc(CNc2ccc(Cl)cc2Cl)c(C)c1`, the melting point fell in the range of 88 to 90 °C. In the case of `Cc1cc(NC(=O)C=Cc2ccccc2)c(NC(=O)C=Cc2ccccc2)cc1C` it was 244 °C; in that of `COc1ccc(S(=O)(=O)c2cnoc2C(C)C)cc1`, 62 to 63.5 °C; in that of `COc1ccc(-c2ccncc2)cc1-c1cccc(Oc2ccccc2)c1`, 184 to 204 °C. Take `O=C1C=C(NC(=O)C(=O)c2cn(Cc3ccccc3[N+](=O)[O-])c3ccccc23)CO1`: the melting point fell in the range of 257 to 260 °C. `CCOC(=O)c1csc(/C=C/c2cn(-c3ccccc3)nc2OCc2ccc(OCc3nc(-c4ccco4)oc3C)c(OC)c2)n1` had a melting point of 156 to 157 °C. As for `CCCc1nncn1-c1ccc(O)cc1`, the melting point was 176 °C. The figure for `O=C(O)COc1ccc(C=CC(=O)c2ccc(C(=O)O)cc2)cc1` is 312 to 314 °C; for `COc1ccc2[nH]ccc(=O)c2c1OCc1ccccc1` it is 171 to 172 °C. In the case of `Nc1cccc(-c2cc3[nH]c4ccc(O)cc4c3c3c2C(=O)NC3=O)c1` it was 279 to 284 °C; in that of `O=C(O)C1CCCC2CSc3ccccc3C21` (centres undefined), 200 to 203 °C. In the case of `CCOC(=O)c1c(-c2ccc(N)cc2)c(C#N)c(=O)n2ccccc12` it was 260 to 262 °C; in that of `CCOC(=O)C(=O)NC1N=C2C(=Cc3ccccc32)S1` (centres undefined), 226 to 228 °C. Turning to `CCC(=O)N1CCC(NC(=O)Nc2ccc(OC(F)(F)F)cc2)CC1`, the melting point was 195 to 196 °C. In the case of `COC(=O)c1nn(-c2cccc(C(F)(F)F)c2)c(=O)cc1OC`, the melting point was 124 to 125 °C. For `CCc1nn2ccc3c(c2c1C(C)C#N)CCO3` (centres undefined), the melting point fell in the range of 86 to 88 °C. Consider `NS(=O)(=O)c1ccc(N2CN(c3ccccc3)CC2=O)c(Cl)c1`, for which the melting point came out at 204 °C.

The compound `CCCC(CCC)n1nnc2c(Cl)nc(C)nc21` returned a melting point of 92 to 93 °C.

In turn, `Cc1noc(CCCCCCCOc2ccc(C3=NCCO3)cc2)c1CN1CCCC1` returned a melting point of 98 to 99 °C. As to `O=[N+]([O-])c1cnn2c(-c3ccncc3)ccnc12`, the melting point was in the range of 241 to 244 °C.

`CC(CN1CCCC1)N1c2ccccc2Sc2ccc(C(=O)NCc3ccccc3[N+](=O)[O-])cc21` (racemic) returned a melting point of 95 °C. As for `CC(N)(Cc1c[nH]c2ccccc12)C(=O)NCCc1ccccc1` (centres undefined), the melting point fell in the range of 106 to 110 °C. For `CCC(CCC1(C(N)=O)c2ccccc2-c2ccccc21)NC(C)C` (centres undefined), the melting point is 161 to 163 °C. Consider `NC(=O)c1nn(-c2ccc(S(N)(=O)=O)cc2)c2c1CSc1ccccc1-2`, for which the melting point is 211 to 213 °C. In turn, `O=C(O)CCC(=O)c1ccc(Cl)c(S(=O)(=O)NCc2ccccc2Cl)c1` showed a melting point of 158 °C. `Cc1cn(-c2nc(Nc3cccc(NS(C)(=O)=O)c3)nc3[nH]cnc23)cn1` came in with a melting point of 298 to 301 °C.

Regarding `CO[C@@H]1c2ccn3c(C)c(C)nc3c2N[C@H](c2ccccc2)[C@H]1OC=O`, the melting point lay within 152 to 153 °C.

With `O=C(CCCOc1ccc(C=Cc2ccncc2)cc1)Nc1nnn[nH]1`, the melting point was in the range of 274 to 276 °C. As for `O=C1CC(Cl)C(=O)N1C1CCCCC1` (centres undefined), the melting point was 63 to 64 °C. The figure for `CCC(CC)C(NS(=O)(=O)c1ccc(Cl)s1)c1ncnn1Cc1ccc(C)cc1` (centres undefined) is 103 to 104 °C. In the case of `Cc1ccc(Nc2c(C)cc(Cl)cc2Cl)c(CC(=O)N(C)C)c1` it was 119 to 124 °C; in that of `COP(=O)(Cc1ccc(-c2nc3ccccc3s2)cc1)OC`, 130 °C; in that of `CCn1c(CCO)nc(C(C)C)c1Sc1cc(Cl)cc(Cl)c1`, 80 to 81 °C. Regarding `CCC(CC)CNC(=O)c1ccc2cccc(Cc3ccc(C(=O)NS(=O)(=O)c4ccccc4)cc3OC)c2c1`, the melting point lay in the range of 210 to 211 °C.

For `CC(=O)N1CCN(c2ccc(Nc3nc(N)c(C(=O)c4sccc4C)s3)cc2)CC1`, the melting point was in the range of 290 to 292 °C.

For `CCOc1cc(CO)ncc1C`, the melting point was 99 to 101 °C.

The compound `CCCC1NS(=O)(=O)N(CCN2CC=C(c3c[nH]c4cc(F)ccc34)CC2)c2ccccc21` (centres undefined) had a melting point of 196 to 198 °C.

Compound `COC(=S)NC[C@H]1CN(c2ccc(-c3nc(Cn4cccn4)cs3)c(F)c2)C(=O)O1` gave a melting point of 157 to 158 °C.

In turn, `O=S1(=O)CC2C(C1)N(CCO)CCN2CCO` (centres undefined) gave a melting point of 145 to 147 °C.

Compound `O=C(Nc1ccccc1S(=O)(=O)F)NC1CCCCC1` displayed a melting point of 177 °C. `CC(CCc1ccc(OCCO)cc1)NCC(O)c1cccc(Cl)c1` (centres undefined) displayed a melting point of 103 to 105 °C. Compound `Nc1cccc(-c2ccc(CCN3CC4C(N)C4C3)cc2)n1` (centres undefined) came in with a melting point of 187 to 190 °C. Consider `CCCn1nc(C(C)C)c(C(=O)OCc2ccccc2C(=O)c2ccccc2)c1Cc1ccc(-c2ccccc2S(=O)(=O)NC(=O)OC(C)(C)C)c(F)c1`, for which the melting point lay within 57 to 61 °C. Take `Nc1ncc(-c2ccccc2)c(N)n1`: the melting point was 162 to 164 °C. Regarding `CC(=O)OCc1ccccc1S(N)(=O)=O`, the melting point lay within 131 to 133 °C.

`CN1CCC(O)(c2ccccc2Cc2ccccc2)C1` (centres undefined) showed a melting point of 108 to 109 °C. With `Cc1ccc(-c2ccc3c(c2)C=C(C(=O)N2CCC(N)CC2)CCO3)cc1`, the melting point was in the range of 123 to 127 °C. Consider `Cc1cccc(-c2[nH]c(C(C)C)nc2-c2ccc(F)c(-c3ccc(C(=O)NC4CCOCC4)cc3)c2)n1`, for which the melting point fell in the range of 130 to 132 °C. The compound `CCn1c(-c2ccnc3ccccc23)nc(-c2ccncc2)c1-c1ccc(Cl)cc1` returned a melting point of 167 to 169 °C. The compound `Cn1cc(N2C=CN=CC2)ccc1=O` displayed a melting point of 166 °C. `CCCCc1ccc(NC(=O)CCc2ccccc2)c(=O)n1CC(=O)OC` came in with a melting point of 84 to 85 °C.

With `COC(=O)c1cc(N=Cc2ccccc2)ccc1O`, the melting point fell in the range of 58 to 59 °C. On to `CCN([C@H]1CC[C@H](c2ccc3[nH]c(=O)oc3c2)CC1)[C@H](C)CCc1ccccc1`, for which the melting point was in the range of 139 to 158 °C.

In turn, `Cc1ccc(C(=O)N2CCC(CN3CCc4oc5ccccc5c4C3)CC2)cc1` returned a melting point of 140 °C. Compound `O=C1c2ccccc2C(=O)C1c1ccncn1` displayed a melting point of 168 to 169 °C.

As for `CNC(=O)c1cnc2ccccc2c1-c1ccccn1`, the melting point was in the range of 171 to 172 °C. The figure for `Cc1ncnc(Cl)c1C` is 45 to 47 °C.

In turn, `CN(C[C@H]1CC[C@H](c2nc3ccccc3[nH]2)CC1)C(=O)OCc1ccccc1` gave a melting point of 146 to 148 °C. In the case of `COC(=O)c1cc(Br)cc(-c2ccc3c(c2)C(C)(C)CCC3(C)C)c1` it was 88 °C; in that of `NCC(O)COc1cccc(CN2CCCCC2)c1` (centres undefined), 74 to 76.5 °C; in that of `CCNC(=O)N1CCC(c2cc(F)ccc2F)(S(=O)(=O)c2ccc(Cl)cc2)CC1`, 172 to 174 °C. Regarding `CNc1nc(-c2cccc(-c3cncc(S(C)=O)c3)c2)c2cc(OC)c(OC)cc2n1` (centres undefined), the melting point was 208 to 210 °C. The compound `CC(C)CN1CN(C)CN(c2c(Cl)cccc2Cl)C1=S` registered a melting point of 133 to 135 °C. `CCCn1c(=O)c2[nH]c(C3CCCC3)nc2n(CCc2ccc(NC(C)=O)cc2)c1=O` gave a melting point above 270 °C. As to `C=CC12CCc3cc(O)ccc3C1CCC1(C)C(O)CCC12` (centres undefined), the melting point lay within 149 to 151 °C.

In the case of `CC(C)C(=O)CCC(C)C1CCC2(C#N)C3=CCC4CC(OC(=O)c5ccccc5)CCC4(C)C3CCC12C` (centres undefined), the melting point is 168 to 169 °C. In the case of `CCCCOc1nc(N)c2[nH]c(=O)n(CCCNc3cccc(CC(=O)OC)c3)c2n1` it was 208 to 209 °C; in that of `COC(=O)C[C@@H]1C[C@@H](COc2ccc(-c3ccc(C(=N)NC(=O)OCc4ccccc4)cc3)cc2)NC1=O`, 160 to 164 °C.

`COC(=O)c1ccc(OC)c(OC)c1N` had a melting point of 66 to 67 °C.

`COC(OC)C1CCC2C3CCC4CC(O)CCC4(C)C3C(=O)CC12C` (centres undefined) showed a melting point of 136 to 142 °C. `CCOC(=O)C1=COc2cc(C(C)(C)C)c(O)cc2O1` displayed a melting point of 222 °C. Turning to `CS(=O)(=O)N1CCN2C(=O)N(c3cc(Cl)cc(Cl)c3)C(=O)C2(Cc2ccc(Br)cc2)C1` (centres undefined), the melting point was found to be 229 °C. As to `O=C1c2c(-c3ccccc3)c3ccccc3c(=O)n2CCN1Cc1cc(C(F)(F)F)cc(C(F)(F)F)c1`, the melting point is 194 to 196 °C. As to `CN(c1cccc(C(F)(F)F)c1)c1cc(Oc2cccc(C(F)(F)F)c2)ncn1`, the melting point was in the range of 118 to 119 °C.
